According to US10835533B2, “1 -((3S,4R)-4-(3-fluorophenyl)-1-(2-methoxyethyl)pyrrolidin-3-yl)-3-(4-methyl-3-(2-methylpyrimidin-5-yl)-1-phenyl-1H-pyrazol-5-yl)urea as a TrkA kinase inhibitor” (Array BioPharma Inc., priority 2014, dated 2020):

Experiment: IV clearance, 1 mg/kg IV, rat
Assay type: in vivo
Settings: for in vivo/in vitro correction factor: microsomal CLh divided by IV CL; for clearance: plasma, 1 mg/kg IV
Procedure: In Table 1, the predicted human IV clearance values were calculated from compound concentration-versus-time data in plasma collected from pre-clinical species (mouse, rat, dog and monkey) following 1 mg/kg intravenous (IV) doses. Concentrations of compound in plasma were measured by LC-MS (liquid chromatography-mass spectrometry). AUCinf values (Area under the plasma concentration-time curve for a dosing interval from time 0 extrapolated to infinity) for individual Cp/t curves (concentration of the drug in plasma at any time t) were determined using linear-trapezoidal integration and first order extrapolation from terminal points of the Cp/t curves, and clearance (CL) was calculated using Dose/AUCinf.
Each of Compound 1, Compound 2, and Compound 3 was formulated by adding the compound (dry) to 20% Trappsol® (hydroxypropyl Beta cyclodextrin; CDT, Inc.) (aq) pH 5.0 and vortexing until a homogeneous suspension (PO) or solution (IV) was achieved.
For intravenous dosing, animals were anesthetized with 3% isoflurane, balanced O2. 1 mg/kg of Compound 1, Compound 2, and Compound 3 was administered at a dose volume of 1 mL/kg to the lateral tail vein. Blood was drawn from the opposite lateral tail vein while the animal was under anesthesia (3% isoflurane balanced with O2, 0.2 mL/timepoint) into NaEDTA tubes (1.5% v/v) at the following time points: 1, 5, 15, 30 minutes, and 1, 2, 4, 8 and 24 hours, and mixed thoroughly.
A single 12-point calibration curve was prepared by first serially diluting (3-fold) a 40-μg/mL stock solution of Compound 1, Compound 2, and Compound 3 in DMSO to provide standard solutions. Plasma (20 μL) was then added to the extraction plate, and 2.5 μL of each standard solution was added to the naïve plasma. A stock solution of an internal standard (10.0 μL of 2.5 μg/mL in acetonitrile) subsequently was added to each standard and sample solution. Proteinaceous material was precipitated from 20 μL of plasma with the addition of 317.5 μL of acetonitrile for a total volume of 350 μL. Samples were vortex-mixed for 5 minutes and spun in an Allegra X-12R centrifuge (Beckman Coulter, Fullerton, Calif.) for 15 minutes at approximately 1,500×g at 4° C. A 100-μL aliquot of each supernatant was transferred via a 550 μL Personal Pipettor (Apricot Designs, Monrovia, Calif.) to 96-well plates and diluted 1:1 with HPLC grade water. The resulting plates were sealed with plate mats and the amount of Compound 1n the plasma was analyzed by LC-MS/MS.
The LC-MS/MS system was comprised of an HTC-PAL autosampler (Leap Technologies, Inc., Carrboro, N.C.), an HP1100 HPLC (Agilent Technologies Inc., Santa Clara, Calif.), and an API4000 triple quadrupole mass spectrometer (Applied Biosystems, Foster City, Calif.). Chromatographic retention of the analyte and internal standard was achieved using a Phenomenex® Synergi 4μ Hydro-RP 80A column (2.1×30 mm, 4 μm particle size; Phenomenex, Torrance, Calif.) in conjunction with gradient conditions using mobile phases A (10 mM ammonium acetate in aqueous 0.1% formic acid and 1% isopropyl alcohol) and B (10 mM ammonium acetate in 89.9% acetonitrile, 10% methanol, 0.1% formic acid). The total run time, including re-equilibration time, for a single injection was 3.5 minutes and the flow rate was 0.8 mL/minute. Solvent B was increased from 5 to 95% in 1.0 minute, held at 95% for 1.0 minute, and then decreased to 5% in 0.1 minute.
The total run time, including re-equilibration time, for a single injection was 3.5 minutes and the flow rate was 0.8 mL/min. Solvent B was increased from 5 to 95% in 1.0 minutes, held at 95% for 1.0 minute, and then decreased to 5% in 0.1 minute. Mass spectrometric detection of the analytes was accomplished using ESI+ ionization mode. Ion current was optimized during infusion of a stock solution of Compound 1, Compound 2, and Compound 3. Analyte responses were measured by multiple reaction monitoring (MRM) of transitions unique to each compound. […]

Row | in vivo/in vitro correction factor | clearance | SMILES
1 | 1.47 | 15 mL/min/kg | COCCN1C[C@@H](NC(=O)Nc2c(C)c(-c3cnc(C)nc3)nn2-c2ccccc2)[C@H](c2cccc(F)c2)C1 [Compound 1, 1-((3S,4R)-4-(3-fluorophenyl)-1-(2-methoxyethyl)pyrrolidin-3-yl)-3-(4-methyl-3-(2-methylpyrimidin-5-yl)-1-phenyl-1H-pyrazol-5-yl)urea]
2 | 0.76 | 29 mL/min/kg | COCCN1C[C@@H](NC(=O)Nc2c(C)c(-c3cnc(C)nc3)nn2-c2ccccc2)[C@H](c2ccc(F)c(F)c2)C1 [Compound 2, 1-((3S,4R)-4-(3,4-difluorophenyl)-1-(2-methoxyethyl)pyrrolidin-3-yl)-3-(4-methyl-3-(2-methylpyrimidin-5-yl)-1-phenyl-1H-pyrazol-5-yl)urea]
3 | 0.88 | 26 mL/min/kg | COCCN1C[C@@H](NC(=O)Nc2c(C)c(-c3cnn(C)c3)nn2-c2ccccc2)[C@H](c2ccc(F)cc2)C1 [Compound 3, 1-(1′,4-dimethyl-1-phenyl-1H,1′H-[3,4′-bipyrazol]-5-yl)-3-((3S,4R)-4-(4-fluorophenyl)-1-(2-methoxyethyl)pyrrolidin-3-yl)urea]
